Measurements published in patent US7179819B2, “VLA-4 inhibitor compounds” (Daiichi Pharmaceutical Co., Ltd., priority 1999, dated 2007).
Structures can show the parent of a compound that is named as a salt.

melting point | Structure (SMILES)
159 to 161 °C | COc1cc(CC(=O)N2C[C@H](N(C)C)C[C@H]2COc2ccc(C(=O)O)cc2)ccc1NC(=O)Nc1ccccc1Cl
165 to 167 °C | COc1cc(CC(=O)N2C[C@@H](N(C)C)C[C@H]2COc2ccc(C(=O)O)cc2)ccc1NC(=O)Nc1ccccc1Cl
160 to 170 °C | COc1cc(CC(=O)N2CCCC2CN2CCN(CC(=O)O)CC2)ccc1NC(=O)Nc1ccccc1C (stereo not shown) (as salt: salt)
139 to 141 °C | COc1cc(CC(=O)N(C)CCOc2ccc(C(=O)O)cc2C(=O)O)ccc1NC(=O)Nc1ccccc1C (as salt: salt) [Compound 254, 4-[[2-[3-methoxy-4-[N′-(2-methylphenyl)ureido]phenylacetyl]methylamino]ethoxy]isophthalic acid]
243 to 245 °C | COc1cc(CC(=O)N2CCC[C@H]2CS(=O)(=O)c2cccc(C(=O)O)c2)ccc1NC(=O)Nc1ccccc1C (stereo in doubt) (as salt: salt) [Compound 21, 3-[[1-[3-methoxy-4-[N′-(2-methylphenyl)ureido]phenylacetyl]-2-pyrrolidinyl]methylsulfonyl]benzoic acid]
123 to 126 °C | COc1cc(CC(=O)N2CCC[C@H]2COc2ccc(C(=O)O)cc2F)ccc1NC(=O)Nc1ccccc1C (stereo in doubt) [Compound 38, 3-fluoro-4-[[1-[3-methoxy-4-[N′-(2-methylphenyl)ureido]phenylacetyl]-2-pyrrolidinyl]methoxy]benzoic acid]
140 to 144 °C | COc1cc(CC(=O)N2CCC[C@H]2COc2ccc(C(=O)O)cc2OC)ccc1NC(=O)Nc1ccccc1F (stereo in doubt) [Compound 39, 4-[1-[4-[N′-(2-fluorophenyl)ureido]-3-methoxyphenylacetyl]-2-pyrrolidinyl]methoxy-3-methoxy benzoic acid]
125 to 128 °C | COc1cc(CC(=O)N2CCC[C@H]2COc2ccc(C(=O)O)cn2)ccc1NC(=O)Nc1ccccc1C (stereo in doubt) [Compound 40, 2-[[1-[3-methoxy-4-[N′-(2-methylphenyl)ureido]phenylacetyl]-2-pyrrolidinyl]methoxy]pyridine-5-carboxylic acid]
122 to 125 °C | COc1cc(CC(=O)N2CCC[C@H]2COc2ncc(C(=O)O)cc2Cl)ccc1NC(=O)Nc1ccccc1C (stereo in doubt) [Compound 47, 3-chloro-2-[[1-[3-methoxy-4-[N′-(2-methylphenyl)ureido]phenylacetyl]-2-pyrrolidinyl]methoxy]pyridine-5-carboxylic acid]
135 to 140 °C | COc1cc(CC(=O)N2CC(F)(F)C[C@H]2COc2ccc(C(=O)O)cc2)ccc1NC(=O)Nc1ccccc1C (stereo in doubt) [Compound 139, 4-[4,4-difluoro-1-[3-methoxy-4-[N′-(2-methylphenyl)ureido]phenylacetyl]-2-pyrrolidinylmethoxy]benzoic acid]
170 to 171 °C | COc1cc(CC(=O)N2CC(N)C[C@H]2COc2ccc(C(=O)O)cc2)ccc1NC(=O)Nc1ccccc1C (stereo in doubt) [Compound 151, 4-[trans-4-amino-1-[3-methoxy-4-[N′-(2-methylphenyl)ureido]phenylacetyl]-(2S)-pyrrolidinyl]methoxybenzoic acid]
125 to 128 °C | COc1cc(CC(=O)N2CSC[C@H]2COc2ccc(C(=O)O)cc2)ccc1NC(=O)Nc1ccccc1C (stereo in doubt) [Compound 168, 4-[3-[3-methoxy-4-[N′-(2-methylphenyl)ureido]phenyl]acetyl-4-thiazolidinyl]methoxybenzoic acid]
126 to 129 °C | COc1cc(CC(=O)N2CSC[C@H]2COc2ccc(C(=O)O)cc2)ccc1NC(=O)Nc1ccccc1Cl (stereo in doubt) [Compound 169, 4-[3-[4-[N′-(2-chlorophenyl)ureido]-3-methoxyphenylacetyl]-4-thiazolidinyl]methoxybenzoic acid]
125 to 133 °C | COc1cc(CC(=O)N2CSC[C@H]2COc2ccc(C(=O)O)cc2)ccc1NC(=O)Nc1ccccc1Br (stereo in doubt) [Compound 170, 4-[3-[4-[N′-(2-bromophenyl)ureido]-3-methoxyphenylacetyl]-4-thiazolidinyl]methoxybenzoic acid]
136 to 142 °C | COc1cc(CC(=O)N2CCC[C@H]2C(=O)NC2CCC(C(=O)O)CC2)ccc1NC(=O)Nc1ccccc1C (stereo in doubt) [Compound 180, 4-[[1-[3-methoxy-4-[N′-(2-methylphenyl)ureido]phenylacetyl]-2-pyrrolidinyl]carbonylamino]cyclohexanecarboxylic acid]
135 to 140 °C | COc1cc(CC(=O)N2CCC[C@H]2C(=O)NC2CCC(C(=O)O)CC2)ccc1NC(=O)Nc1ccccc1Cl (stereo in doubt) [Compound 181, 4-[[1-[4-[N′-(2-chlorophenyl)ureido]-3-methoxylphenylacetyl]-2-pyrrolidinyl]carbonylamino]cyclohexanecarboxylic acid]
165 to 168 °C | Cc1ccccc1NC(=O)Nc1ccc(CC(=O)N2CCCC2/C=C/c2ccc(C(=O)O)cc2)cc1 (stereo not shown) [Compound 6, (E)-4-[2-[1-[4-[N′-(2-methylphenyl)ureido]phenylacetyl]-2-pyrrolidinyl]ethenyl]benzoic acid]

melting point | Structure (SMILES)
180 to 190 °C | Cc1ccccc1NC(=O)Nc1ccc(CC(=O)N2CCCC2CCc2ccc(C(=O)O)cc2)cc1 (stereo not shown) [Compound 7, 4-[2-[1-[4-[N′-(2-methylphenyl)ureido]phenylacetyl]-2-pyrrolindinyl]ethyl]benzoic acid]
154 to 157 °C | COc1cc(CC(=O)N2CCCC2C#Cc2ccc(C(=O)O)cc2)ccc1NC(=O)Nc1ccccc1 (stereo not shown) [Compound 13, 4-[2-[1-[3-methoxy4-(N′-phenylureido)phenylacetyl]-2-pyrrolidinyl]ethynyl]benzoic acid]
161 to 164 °C | COc1cc(CC(=O)N2CCCC2C#Cc2ccc(C(=O)O)cc2)ccc1NC(=O)Nc1ccccc1C (stereo not shown) [Compound 14, 4-[2-[1-[3-methoxy-4-[N′-(2-methylphenyl)ureido]phenylacetyl]-2-pyrrolidinyl]ethynyl]benzoic acid]
132 to 135 °C | COc1cc(CC(=O)N2CCC[C@H]2COc2ccc(C(=O)O)cc2OC)ccc1NC(=O)Nc1ccccc1C [Compound 27]
152 to 155 °C (dec.) | COc1cc(CC(=O)N2CCCC2C#Cc2ccc(C(=O)O)cc2)ccc1NC(=O)Nc1ccccc1F (stereo not shown) [Compound 33, 4-[2-[1-[4-[N′-(2-fluorophenyl)ureido)-3-methoxyphenylacetyl]-2-pyrrolidinyl]ethynyl]benzoic acid]
243 to 245 °C | COc1cc(C(=O)O)ccc1OCc1csc(Cc2ccc(NC(=O)Nc3ccccc3C)cc2)n1 [Compound 41, 3-methoxy-4-[2-[4-[N′-(2-methylphenyl)ureido]benzyl]4-thiazolyl]methoxybenzoic acid]
120 to 125 °C | COc1cc(CC(=O)N2CCC[C@H]2COc2ccc(C(=O)O)cc2)ccc1NC(=O)Nc1ccccc1Br [Compound 59, 4-[1-[4-[N′-(2-bromophenyl)ureido]-3-methoxylphenylacetyl]-(2S)-pyrrolidinyl]methoxybenzoic acid]
169 to 171 °C | O=C(Nc1ccccc1)Nc1ccc(CC(=O)N2C[C@@H](F)C[C@H]2COc2ccc(C(=O)O)cc2)cc1 [Compound 72, 4-[(4S)-fluoro-1-[4-(N′-phenylureido)phenylacetyl]-(2S)-pyrrolidinylmethoxy]benzoic acid]
130 to 135 °C | Cc1cc(CC(=O)N2C[C@@H](F)C[C@H]2COc2ccc(C(=O)O)cc2)ccc1NC(=O)Nc1ccccc1 [Compound 73, 4-[(4S)-fluoro-1-[3-methyl-4-(N′-phenylureido)phenylacetyl]-(2S)-pyrrolidinylmethoxy]benzoic acid]
137 to 143 °C | Cc1cc(CC(=O)N2C[C@@H](F)C[C@H]2COc2ccc(C(=O)O)cc2)ccc1NC(=O)Nc1ccccc1F [Compound 74, 4-[(4S)-fluoro-1-[4-[N′-(2-fluorophenyl)ureido]-3-methylphenylacetyl]-(2S)-pyrrolidinylmethoxy]benzoic acid]
130 to 135 °C | O=C(Nc1ccc(CC(=O)N2C[C@@H](F)C[C@H]2COc2ccc(C(=O)O)cc2)cc1)Nc1ccccc1C(F)(F)F [Compound 75, 4-[(4S)-fluoro-1-[4-[N′-(2-trifluoromethylphenyl)ureido]phenylacetyl]-(2S)-pyrrolidinylmethoxy]benzoic acid]
129 to 132 °C | COc1cc(CC(=O)N2C[C@@H](F)C[C@H]2COc2ccc(C(=O)O)cc2)ccc1NC(=O)Nc1ccccc1C(F)(F)F [Compound 76, 4-[(4S)-fluoro-1-[3-methoxy-4-[N′-(2-trifluoromethylphenyl)ureido]phenylacetyl]-(2S)-pyrrolidinylmethoxy]benzoic acid]
123 to 126 °C | Cc1cc(CC(=O)N2C[C@@H](F)C[C@H]2COc2ccc(C(=O)O)cc2)ccc1NC(=O)Nc1ccccc1C(F)(F)F [Compound 77, 4-[(4S)-fluoro-1-[3-methyl-4-[N′-(2-trifluoromethylphenyl)ureido]phenylacetyl]-(2S)-pyrrolidinylmethoxy]benzoic acid]
122 to 124 °C | Cc1cc(CC(=O)N2CCC[C@H]2COc2ccc(C(=O)O)cc2)ccc1NC(=O)Nc1ccccc1Cl [Compound 81, 4-[1-[4-[N′-(2-chlorophenyl)ureido]-3-methylphenylacetyl]-(2S)-pyrrolidinyl]methoxybenzoic acid]
125 to 130 °C | Cc1cc(CC(=O)N2CCC[C@H]2COc2ccc(C(=O)O)cc2)ccc1NC(=O)Nc1ccccc1Br [Compound 82, 4-[1-[4-[N′-(2-bromophenyl)ureido]-3-methylphenylacetyl]-(2S)-pyrrolidinyl]methoxybenzoic acid]
191 to 193 °C | Cc1ccccc1NC(=O)Nc1ccc(CC(=O)N2CCC[C@H]2COc2ccc(C(=O)O)cc2)cc1C [Compound 83, 4-[1-[3-methyl-4-[N′-(2-methylphenyl)ureido]phenylacetyl]-(2S)-pyrrolidinylmethoxy]benzoic acid]

Structure (SMILES) | melting point
COc1cc(CC(=O)N2C[C@@H](N(C)C)C[C@H]2COc2ccc(C(=O)O)cc2)ccc1NC(=O)Nc1ccccc1C | 147 to 150 °C
